Usually IC50 stands for the concentration at which inhibition is half-maximal.

In test [1] the target is intracellular phosphorylation of EGFR (Tyr1068) in PC-9 cells (Ex19Del) (Homo sapiens, UniProt P00533, DEL746-750). Kind of test: PC-9 pEGFR AlphaLISA assay. The test is classed as cell-based. To be noted: 4 hours compound incubation, read-out: Ext pEGFR_PC-9 Ex19Del IC50. (In general: In Alpha technology, singlet oxygen from a donor bead excites a nearby acceptor bead.)
A further test addresses T1, EGFR (d746-750) (Homo sapiens, UniProt P00533, DEL746-750).
T1 construct: purchased SignalChem E10-122JG
The experiment in a line: Biochemical EGFR inhibition assay (Caliper mobility shift), EGFR (d746-750). The settings on record: read-out: Enz EGFR_Exon19-del746-750 IC50.

The target in the next test is T2, EGFR L858R (Homo sapiens, UniProt P00533, L858R).
T2 construct: purchased SignalChem E10-122BG
T2 sequence (P00533 25-1210 L858R): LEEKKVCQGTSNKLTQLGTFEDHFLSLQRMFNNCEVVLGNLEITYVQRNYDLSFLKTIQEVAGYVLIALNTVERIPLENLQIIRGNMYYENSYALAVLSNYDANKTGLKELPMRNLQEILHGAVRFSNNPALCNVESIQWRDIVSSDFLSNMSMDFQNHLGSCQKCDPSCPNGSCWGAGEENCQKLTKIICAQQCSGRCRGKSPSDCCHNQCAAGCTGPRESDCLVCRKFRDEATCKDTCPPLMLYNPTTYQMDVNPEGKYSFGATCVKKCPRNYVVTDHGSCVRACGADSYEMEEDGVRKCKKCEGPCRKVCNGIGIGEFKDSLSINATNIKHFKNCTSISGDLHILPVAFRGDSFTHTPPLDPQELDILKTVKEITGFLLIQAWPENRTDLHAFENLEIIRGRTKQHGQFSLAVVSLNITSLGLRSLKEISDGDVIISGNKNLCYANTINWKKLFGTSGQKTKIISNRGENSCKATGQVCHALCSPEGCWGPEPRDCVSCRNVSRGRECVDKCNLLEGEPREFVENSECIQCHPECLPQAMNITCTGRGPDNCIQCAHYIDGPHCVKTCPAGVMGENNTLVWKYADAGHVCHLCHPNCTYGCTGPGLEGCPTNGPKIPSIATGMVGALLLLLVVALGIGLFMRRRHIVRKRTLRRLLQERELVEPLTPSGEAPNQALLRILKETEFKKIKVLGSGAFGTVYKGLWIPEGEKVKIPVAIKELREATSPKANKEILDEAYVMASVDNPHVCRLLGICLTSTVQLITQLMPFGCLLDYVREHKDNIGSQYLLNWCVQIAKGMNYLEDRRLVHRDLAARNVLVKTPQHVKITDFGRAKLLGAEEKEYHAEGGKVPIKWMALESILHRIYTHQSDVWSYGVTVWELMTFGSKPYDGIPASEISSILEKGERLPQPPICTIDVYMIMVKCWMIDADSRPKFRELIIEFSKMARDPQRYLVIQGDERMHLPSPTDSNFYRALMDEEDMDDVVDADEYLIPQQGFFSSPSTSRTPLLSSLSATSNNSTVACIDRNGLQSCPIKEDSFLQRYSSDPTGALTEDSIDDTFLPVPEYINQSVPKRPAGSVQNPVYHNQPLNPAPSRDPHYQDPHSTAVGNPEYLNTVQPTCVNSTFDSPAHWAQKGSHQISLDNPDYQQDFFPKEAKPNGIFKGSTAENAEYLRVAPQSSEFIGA
The experiment in a line: Biochemical EGFR inhibition assay (Caliper mobility shift), EGFR L858R. To be noted: read-out: Enz EGFR_L858R IC50.

Where [2] appears, read: 1.0 mM ATP or ATP Km, room temperature (25° C.).

Like-named read-outs stand apart in the source and are kept apart here.

Chain of intracellular phosphorylation of EGFR (Tyr1068) in PC-9 cells (Ex19Del) (P00533 with tags, fused parts or gaps DEL746-750): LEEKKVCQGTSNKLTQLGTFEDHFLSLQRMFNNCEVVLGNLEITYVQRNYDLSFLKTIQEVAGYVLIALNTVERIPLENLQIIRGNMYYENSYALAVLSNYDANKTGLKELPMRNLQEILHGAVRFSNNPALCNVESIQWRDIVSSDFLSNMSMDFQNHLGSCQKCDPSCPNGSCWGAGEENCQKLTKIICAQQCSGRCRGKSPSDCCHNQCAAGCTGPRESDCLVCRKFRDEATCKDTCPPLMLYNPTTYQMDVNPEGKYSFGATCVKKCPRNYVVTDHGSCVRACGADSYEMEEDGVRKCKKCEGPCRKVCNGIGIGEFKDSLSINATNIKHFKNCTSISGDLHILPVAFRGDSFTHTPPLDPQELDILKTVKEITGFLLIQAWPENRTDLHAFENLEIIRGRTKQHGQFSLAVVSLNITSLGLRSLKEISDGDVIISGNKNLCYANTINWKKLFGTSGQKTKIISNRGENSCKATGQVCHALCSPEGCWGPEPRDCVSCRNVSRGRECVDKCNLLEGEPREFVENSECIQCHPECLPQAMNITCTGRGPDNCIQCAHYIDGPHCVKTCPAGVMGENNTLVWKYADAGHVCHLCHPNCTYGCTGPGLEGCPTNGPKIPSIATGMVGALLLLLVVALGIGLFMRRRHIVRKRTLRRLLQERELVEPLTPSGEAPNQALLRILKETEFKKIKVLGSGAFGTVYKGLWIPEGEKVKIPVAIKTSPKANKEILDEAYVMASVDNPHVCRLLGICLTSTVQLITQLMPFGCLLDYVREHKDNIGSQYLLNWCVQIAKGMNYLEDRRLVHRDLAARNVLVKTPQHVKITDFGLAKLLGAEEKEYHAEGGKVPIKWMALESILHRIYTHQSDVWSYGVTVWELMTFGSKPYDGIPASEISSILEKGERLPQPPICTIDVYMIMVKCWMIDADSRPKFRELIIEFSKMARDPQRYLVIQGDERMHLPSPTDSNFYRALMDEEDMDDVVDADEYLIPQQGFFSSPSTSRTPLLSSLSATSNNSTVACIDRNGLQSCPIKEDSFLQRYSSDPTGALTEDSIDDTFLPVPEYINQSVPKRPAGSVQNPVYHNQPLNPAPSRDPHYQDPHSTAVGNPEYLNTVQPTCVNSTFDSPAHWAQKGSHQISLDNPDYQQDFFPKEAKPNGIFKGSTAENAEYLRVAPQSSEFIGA
T1 sequence (P00533 with tags, fused parts or gaps DEL746-750 limits assumed): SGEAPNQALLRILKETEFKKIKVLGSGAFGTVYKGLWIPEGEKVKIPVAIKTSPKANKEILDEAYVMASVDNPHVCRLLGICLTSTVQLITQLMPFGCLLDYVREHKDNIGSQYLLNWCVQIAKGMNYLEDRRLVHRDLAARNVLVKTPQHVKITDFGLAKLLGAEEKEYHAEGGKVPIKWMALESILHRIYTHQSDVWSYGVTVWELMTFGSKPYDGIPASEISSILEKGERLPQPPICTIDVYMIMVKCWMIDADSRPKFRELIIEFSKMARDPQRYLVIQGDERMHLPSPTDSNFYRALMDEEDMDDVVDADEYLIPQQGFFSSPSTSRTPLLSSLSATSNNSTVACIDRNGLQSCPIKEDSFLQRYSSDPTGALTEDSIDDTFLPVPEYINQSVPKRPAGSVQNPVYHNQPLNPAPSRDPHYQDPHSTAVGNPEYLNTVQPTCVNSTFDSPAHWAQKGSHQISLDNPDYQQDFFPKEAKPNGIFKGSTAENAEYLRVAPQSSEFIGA

On to `C[C@H](CN(C)C)Oc1cc(-c2cnn(C)c2)cc2ncnc(Nc3cnc4ccccc4c3F)c12` [Example 110, (R)-5-((1-(dimethylamino)propan-2-yl)oxy)-N-(4-fluoroquinolin-3-yl)-7-(1-methyl-1H-pyrazol-4-yl)quinazolin-4-amine], for which the 50% inhibitory concentration (IC50) in test [1] is > 0.0501 µM; on EGFR (d746-750) it was < 0.01 µM; at EGFR L858R, < 0.01 µM.
On to `COC1CCN(c2cc(O[C@H](C)CN(C)C)c3c(Nc4ccc5ncccc5c4F)ncnc3c2)C1` (mixture of isomers) [Example 86, 5—(((R)-1-(dimethylamino)propan-2-yl)oxy)-N-(5-fluoroquinolin-6-yl)-7-((R)-3-methoxypyrrolidin-1-yl)quinazolin-4-amine and 5-(((R)-1-(dimethylamino)propan-2-yl)oxy)-N-(5-fluoroquinolin-6-yl)-7-((S)-3-methoxypyrrolidin-1-yl)quinazolin-4-amine], for which the IC50 in test [1] was ≤ 0.01 µM; at EGFR (d746-750), < 0.01 µM; at EGFR L858R, < 0.01 µM.
For `C[C@H](CN(C)C)Oc1cc(-c2cnn(C)c2)cc2ncnc(Nc3ccc4nnccc4c3)c12` [Example 11, (R)—N-(5-((1-(dimethylamino)propan-2-yl)oxy)-7-(1-methyl-1H-pyrazol-4-yl)quinazolin-4-yl)cinnolin-6-amine], the IC50 is > 0.0501 µM in test [1], 0.0101 to 0.05 µM at EGFR (d746-750) and > 0.0501 µM at EGFR L858R.
For `CO[C@@H]1CCN(c2cc(O[C@H](C)C3COC3)c3c(Nc4ccc5ncccc5c4F)ncnc3c2)C1` (single isomer, unassigned) [Example 85a, N-(5-fluoroquinolin-6-yl)-7-((R)-3-methoxypyrrolidin-1-yl)-5-((R)-1-(oxetan-3-yl)ethoxy)quinazolin-4-amine or N-(5-fluoroquinolin-6-yl)-7-((S)-3-methoxypyrrolidin-1-yl)-5-((R)-1-(oxetan-3-yl)ethoxy)quinazolin-4-amine], the IC50 in test [1] is ≤ 0.01 µM; at EGFR (d746-750) (setting [2]), < 0.01 µM; at EGFR L858R (setting [2]), < 0.01 µM.
Turning to `CN(C)C1(COc2cc(-c3cnn(C)c3)cc3ncnc(Nc4ccc5ncccc5c4F)c23)COC1` [Example 21, 5-((3-(dimethylamino)oxetan-3-yl)methoxy)-N-(5-fluoroquinolin-6-yl)-7-(1-methyl-1H-pyrazol-4-yl)quinazolin-4-amine], the 50% inhibitory concentration (IC50) in test [1] was 0.0101 to 0.05 µM; at EGFR (d746-750) it was < 0.01 µM; on EGFR L858R, 0.0101 to 0.05 µM.
In the case of `COc1nn(C)cc1-c1cc(O[C@H](C)CN(C)C)c2c(Nc3ccc4ncccc4c3F)ncnc2c1` [Example 54, (R)-5-((1-(dimethylamino)propan-2-yl)oxy)-N-(5-fluoroquinolin-6-yl)-7-(3-methoxy-1-methyl-1H-pyrazol-4-yl)quinazolin-4-amine], the half-inhibitory concentration (IC50) in test [1] was ≤ 0.01 µM; at EGFR (d746-750), < 0.01 µM; on EGFR L858R it was < 0.01 µM.
Consider `C[C@@H](CN(C)C)Oc1cc(-c2cnn(C)c2)cc2ncnc(Nc3ccc4ncccc4c3F)c12` (single isomer, unassigned) [Example 4, (S)-5-((1-(dimethylamino)propan-2-yl)oxy)-N-(5-fluoroquinolin-6-yl)-7-(1-methyl-1H-pyrazol-4-yl)quinazolin-4-amine or (R)-5-((1-(dimethylamino)propan-2-yl)oxy)-N-(5-fluoroquinolin-6-yl)-7-(1-methyl-1H-pyrazol-4-yl)quinazolin-4-amine], for which the concentration for half-maximal inhibition (IC50) in test [1] was > 0.0501 µM; at EGFR (d746-750) (setting [2]), 0.0101 to 0.05 µM; on EGFR L858R (setting [2]), 0.0101 to 0.05 µM.
Turning to `COCCn1cc(-c2cc(O[C@H](C)C3COC3)c3c(Nc4ccc5ncccc5c4F)ncnc3c2)cn1` [Example 52, (R)—N-(5-fluoroquinolin-6-yl)-7-(1-(2-methoxyethyl)-1H-pyrazol-4-yl)-5-(1-(oxetan-3-yl)ethoxy)quinazolin-4-amine], the IC50 in test [1] is ≤ 0.01 µM; on EGFR (d746-750) it was < 0.01 µM; at EGFR L858R, < 0.01 µM.
In the case of `C[C@H](CN(C)C)Oc1cc(-c2cnn(C)c2)cc2ncnc(Nc3ccc4nccnc4c3)c12` [Example 103, (R)-5-((1-(dimethylamino)propan-2-yl)oxy)-7-(1-methyl-1H-pyrazol-4-yl)-N-(quinoxalin-6-yl)quinazolin-4-amine], the half-maximal inhibitory concentration (IC50) in test [1] is 0.0101 to 0.05 µM; at EGFR (d746-750), < 0.01 µM; at EGFR L858R, 0.0101 to 0.05 µM.
Regarding `C[C@H](CN(C)C)Oc1cc(-c2cnn(C)c2)cc2ncnc(Nc3ccc4ncc(O)cc4c3F)c12` [Example 116, (R)-6-((5-((1-(dimethylamino)propan-2-yl)oxy)-7-(1-methyl-1H-pyrazol-4-yl)quinazolin-4-yl)amino)-5-fluoroquinolin-3-ol], the 50% inhibitory concentration (IC50) in test [1] was > 0.0501 µM; at EGFR (d746-750) it was < 0.01 µM; on EGFR L858R, < 0.01 µM.
In the case of `C[C@@H](Oc1cc(N2CCC(N(C)C)CC2)cc2ncnc(Nc3ccc4ncccc4c3F)c12)C1COC1` [Example 78, (R)-7-(4-(dimethylamino)piperidin-1-yl)-N-(5-fluoroquinolin-6-yl)-5-(1-(oxetan-3-yl)ethoxy)quinazolin-4-amine], the half-maximal inhibitory concentration (IC50) was ≤ 0.01 µM in test [1], < 0.01 µM at EGFR (d746-750) and < 0.01 µM at EGFR L858R.
Consider `C[C@@H](Oc1cc(-c2cnn(C)c2)cc2ncnc(Nc3cc(F)c4ncccc4c3F)c12)C1COC1` [Example 9, (R)—N-(5,8-difluoroquinolin-6-yl)-7-(1-methyl-1H-pyrazol-4-yl)-5-(1-(oxetan-3-yl)ethoxy)quinazolin-4-amine], for which the values for the concentration for half-maximal inhibition (IC50) (in test [1]; at EGFR (d746-750); on EGFR L858R) were ≤ 0.01 µM, < 0.01 µM and < 0.01 µM, respectively.
Regarding `C[C@@H](Oc1cc(N2CC[C@@H](N(C)C)C2)cc2ncnc(Nc3ccc4ncccc4c3F)c12)C1COC1` [Example 79, 7—((R)-3-(dimethylamino)pyrrolidin-1-yl)-N-(5-fluoroquinolin-6-yl)-5-((R)-1-(oxetan-3-yl)ethoxy)quinazolin-4-amine], the results for the half-maximal inhibitory concentration (IC50) (in test [1]; on EGFR (d746-750); at EGFR L858R) were ≤ 0.01 µM, < 0.01 µM and < 0.01 µM, respectively.
For `C[C@H](CN(C)C)Oc1cc(N2CCO[C@@H](C(F)F)C2)cc2ncnc(Nc3ccc4ncccc4c3F)c12` (single isomer, unassigned) [Example 99a, 7-((S)-2-(difluoromethyl)morpholino)-5-(((R)-1-(dimethylamino)propan-2-yl)oxy)-N-(5-fluoroquinolin-6-yl) or 7-((R)-2-(difluoromethyl)morpholino)-5-(((R)-1-(dimethylamino)propan-2-yl)oxy)-N-(5-fluoroquinolin-6-yl)quinazolin-4-amine], the IC50 in test [1] was ≤ 0.01 µM; at EGFR (d746-750) (setting [2]), < 0.01 µM; at EGFR L858R (setting [2]), < 0.01 µM.
With `C[C@H](CN(C)C)Oc1cc(N2CCOCC2)cc2ncnc(Nc3ccc4ncccc4c3F)c12` [Example 65, (R)-5-((1-(dimethylamino)propan-2-yl)oxy)-N-(5-fluoroquinolin-6-yl)-7-morpholinoquinazolin-4-amine], the IC50 was ≤ 0.01 µM in test [1], < 0.01 µM on EGFR (d746-750) and 0.0101 to 0.05 µM at EGFR L858R.
For `C[C@H](CN(C)C)Oc1cc(N2CC[C@H](C(C)(C)O)C2)cc2ncnc(Nc3ccc4ncccc4c3F)c12` [Example 73, 2—((S)-1-(5-(((R)-1-(dimethylamino)propan-2-yl)oxy)-4-((5-fluoroquinolin-6-yl)amino)quinazolin-7-yl)pyrrolidin-3-yl)propan-2-ol], the concentration for half-maximal inhibition (IC50) in test [1] is ≤ 0.01 µM; at EGFR (d746-750), < 0.01 µM; on EGFR L858R, < 0.01 µM.
Regarding `C[C@H](CN1CCC1)Oc1cc(-c2cnn(C)c2)cc2ncnc(Nc3ccc4ncccc4c3F)c12` [Example 101, (R)-5-((1-(azetidin-1-yl)propan-2-yl)oxy)-N-(5-fluoroquinolin-6-yl)-7-(1-methyl-1H-pyrazol-4-yl)quinazolin-4-amine], the IC50 in test [1] was ≤ 0.01 µM; at EGFR (d746-750) it was < 0.01 µM; at EGFR L858R, 0.0101 to 0.05 µM.
Taken in the same sequence, the figures for `CCOc1cc2ncnc(Nc3ccc4ncccc4c3F)c2c(O[C@H](C)CN(C)C)n1` [Example 58, (R)-5-((1-(dimethylamino)propan-2-yl)oxy)-7-ethoxy-N-(5-fluoroquinolin-6-yl)pyrido[4,3-d]pyrimidin-4-amine] were > 0.0501 µM, 0.0101 to 0.05 µM and > 0.0501 µM.
Taken in the same sequence, the figures for `C[C@H](CN(C)C)Oc1cc(N2CC3CCC(C2)O3)cc2ncnc(Nc3ccc4ncccc4c3F)c12` [Example 69, 7-(8-oxa-3-azabicyclo[3.2.1]octan-3-yl)-5-(((R)-1-(dimethylamino)propan-2-yl)oxy)-N-(5-fluoroquinolin-6-yl)quinazolin-4-amine] were > 0.0501 µM, 0.0101 to 0.05 µM and > 0.0501 µM.
Take `C[C@H](CN(C)C)Oc1cc(-c2cnn(C)c2)cc2ncnc(Nc3ccc4cccnc4c3)c12` [Example 13, (R)-5-((1-(dimethylamino)propan-2-yl)oxy)-7-(1-methyl-1H-pyrazol-4-yl)-N-(quinolin-7-yl)quinazolin-4-amine]: the IC50 in test [1] was ≤ 0.01 µM; on EGFR (d746-750), < 0.01 µM; at EGFR L858R, < 0.01 µM.
Regarding `C[C@H](CN(C)C)Oc1cc(-c2cnn(C)c2)cc2ncnc(Nc3ccc4ncc(F)cc4c3F)c12` [Example 104, (R)—N-(3,5-difluoroquinolin-6-yl)-5-((1-(dimethylamino)propan-2-yl)oxy)-7-(1-methyl-1H-pyrazol-4-yl)quinazolin-4-amine], the half-inhibitory concentration (IC50) in test [1] was 0.0101 to 0.05 µM; at EGFR (d746-750) it was < 0.01 µM; at EGFR L858R it was 0.0101 to 0.05 µM.

Values taken from patent publication US12662465B2, “EGFR inhibitors” (Blueprint Medicines Corporation, priority 2021, dated 2026).
